The values that follow come from patent publication US8338426B2, “Piperazinyl derivatives useful as modulators of the neuropeptide Y2 receptor” (Janssen Pharmaceutica NV, priority 2007, dated 2012).

One test has as its target MTP (Homo sapiens, UniProt P55157). The test can be described thus: MTP assay (triglyceride transfer between vesicles). It counts as biochemical. The following applies: read-out: MTP pIC50 (converted). On the procedure:
MTP activity was measured using an assay similar to one described by J. R. Wetterau and D. B. Zilversmit in Chemistry and Physics of Lipids (1985) 38, 205-222.
In order to prepare the donor and acceptor vesicles, the appropriate lipids in chloroform were put into a glass test tube and dried under a stream of nitrogen. A buffer containing 15 mM Tris-HCl (pH 7.5), 1 mM ethylenediamine tetra-acetic acid, 40 mM NaCl, 0.02% NaN3 (assay buffer) was added to the dried lipid. The mixture was vortexed briefly and the lipids were then allowed to hydrate for 20 minutes on ice. Vesicles were then prepared by bath sonication (using a Branson 2200 device) at room temperature for at most 15 minutes. Butylated hydroxytoluene was included in all vesicle preparations at a concentration of 0.1%. The lipid transfer assay mixture contained donor vesicles (40 nmole phosphatidylcholine, 7.5 mole % cardiolipin and 0.25 mole % glycerol tri[1-^14C]-oleate), acceptor vesicles (240 nmol phosphatidylcholine) and 5 mg bovine serum albumin in a total volume of 675 μl in a 1.5 ml microcentrifuge tube. Test compound was added dissolved in dimethylsulfoxide (0.13% final concentration). After 5 minutes of pre-incubation at 37° C., the reaction was started by the addition of MTP in 100 μl of a dialysis buffer. The reaction was stopped by the addition of 400 μl […] (DEAE)-52 cellulose (Sephadex) pre-equilibrated in 15 mM Tris-HCl (pH 7.5), 1 mM ethylenediamine tetra-acetic acid and 0.02% NaN3 (1:1 volume/volume). The mixture was agitated for 4 minutes and centrifuged for 2 minutes at maximum speed in an Eppendorf centrifuge (4° C.) to pellet the DEAE-52-bound donor vesicles. An aliquot of the supernatant containing the acceptor liposomes was counted and the [^14C]-counts were used to calculate the percent triglyceride transfer from donor to acceptor vesicles.
Representative compounds of the present invention were measured for binding against the MTP receptor, as described above, with results as listed in Table 2 below.

Another test deals with T1, human Y2 receptor (Homo sapiens, UniProt P49146).
T1 construct: KAN-Ts endogenously expressing Y2 receptors were used; endogenous in cells; host or cells: KAN-Ts cells
T1 sequence (P49146 1-381): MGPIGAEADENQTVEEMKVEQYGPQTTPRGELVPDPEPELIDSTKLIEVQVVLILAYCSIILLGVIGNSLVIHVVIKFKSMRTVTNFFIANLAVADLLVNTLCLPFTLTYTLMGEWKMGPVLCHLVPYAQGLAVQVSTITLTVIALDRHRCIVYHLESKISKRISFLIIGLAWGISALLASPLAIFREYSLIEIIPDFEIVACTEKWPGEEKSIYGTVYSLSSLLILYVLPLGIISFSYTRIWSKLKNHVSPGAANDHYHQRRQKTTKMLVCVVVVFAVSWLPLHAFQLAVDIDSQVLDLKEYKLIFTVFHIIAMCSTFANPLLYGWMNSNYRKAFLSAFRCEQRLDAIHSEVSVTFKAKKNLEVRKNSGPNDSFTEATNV
The test can be described thus: Neuropeptide Y2 radioligand binding assay, [125I]PYY, KAN-Ts cells. The following applies: KANT-S cells, mean ± S.E.M., read-out: hY2 pKi (converted). On the procedure: (§1) Radioligand binding assays for the human and rat/mouse Y2 receptor were performed as described in Bonaventure, P., D. Nepomuceno, C. Mazur, B. Lord, D. A. Rudolph, J. A. Jablonowski, N. I. Carruthers and T. W. Lovenberg, J Pharmacol Exp Ther. 2004, 308, 1130.
(§2) KAN-Ts endogenously expressing Y2 receptors were used, for the rat and mouse Y2 receptor, membranes from rat or mouse hippocampus were prepared. Membranes were incubated with [^125I]PYY (80 pM) in the presence or absence of test compound for 1 h at rt. The reaction was stopped by filtration through GF/C filter plates pre-soaked in 0.3% polyethylenimine and subsequently washed with Tris-HCl, 50 mM, 5 mM EDTA buffer. Plates were dried for 1 h in a 55° C. oven, scintillation fluid was added and the radioactivity was counted in a Packard TopCount. Specific binding to the NPY receptor subtypes was determined by radioactivity that was bound in the presence of 1 μM NPY.
(§3) Apparent Ki values were calculated as K=IC50/(1+C/KD), where C is concentration of the radioligand and pKi=−log Ki. Data presented below are expressed as mean±S.E.M.

The target of the next test is T2, hY2 (Homo sapiens, UniProt P49146).
T2 construct: KAN-Ts endogenously expressing Y2 receptors were used; endogenous in cells; host or cells: KAN-Ts cells stably expressing chimeric G proteins
T2 sequence (P49146 1-381): T1 sequence (P49146 1-381)
Put plainly: Ca2+ mobilization assay (FLIPR) in KAN-Ts cells. The note with it: KANT-S cells, inhibition of PYY stimulated Ca2+ increase, read-out: hY2 pKB (converted). It counts as cell-based. On the procedure: The assay was performed using the fluorimetric imaging plate reader (FLIPR) format as described in Dautzenberg, F. M., Biochemical Pharmacology 2005, 69, 1493.
KAN-Ts cells stably expressing chimeric G proteins were seeded at a density of 100,000 cells into poly-d-lysine coated 384-well blackwall, clear-bottom microtiter plates (Corning, N.Y.). One day later, the medium was removed and 50 μl loading medium DMEM high glucose, without serum, supplemented with 10 mM HEPES-acid, 0.1% BSA, 5 mM probenecid and 2 μM Fluo-3AM was added. Cells were loaded for 1 h at 37° C., washed twice with 50 μl assay buffer (5 mM HEPES-acid, 140 mM NaCl, 1 mM MgCl2, 5 mM KCl, 10 mM glucose) and then 30 μl assay buffer was added. Cells were further pre-incubated at room temperature before adding agonists or agonists plus antagonists in 20 μl assay buffer and then measured on a T-channel fluorometric imaging plate reader (FLIPR, Molecular Devices, Sunnyvale, Calif.).
Antagonistic potency values were converted to apparent pKB values using a modified Cheng-Prusoff correction. Apparent pKB=−log IC50/1+[conc agonist/EC50]. Data below are expressed as mean±S.E.M.
The in vitro antagonistic properties of the compound of formula (A) were confirmed using Ca^2+ measurement.
(Calcium flux is commonly read through the fluorescence of an indicator in the cells.)

Test [1] concerns the target T3, Y2 receptor binding sites in rat hippocampus (Rattus norvegicus, UniProt Q9ERC0).
T3 construct: from tissue; host or cells: rat brain sections (hippocampus) after in vivo dosing
T3 sequence (Q9ERC0 1-381): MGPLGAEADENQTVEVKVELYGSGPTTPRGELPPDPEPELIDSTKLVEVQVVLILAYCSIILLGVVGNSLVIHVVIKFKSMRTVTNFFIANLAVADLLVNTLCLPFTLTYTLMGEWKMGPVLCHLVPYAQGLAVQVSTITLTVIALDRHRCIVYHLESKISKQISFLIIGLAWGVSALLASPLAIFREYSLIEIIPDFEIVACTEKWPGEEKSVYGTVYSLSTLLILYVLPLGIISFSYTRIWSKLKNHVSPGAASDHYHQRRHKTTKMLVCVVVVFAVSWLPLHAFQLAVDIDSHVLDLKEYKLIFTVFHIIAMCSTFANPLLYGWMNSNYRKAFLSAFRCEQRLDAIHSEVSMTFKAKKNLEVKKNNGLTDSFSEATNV
Put plainly: Ex vivo Y2 receptor occupancy in rats (autoradiography). The note with it: SC administration (10 mg/kg). On the procedure:
The pharmacokinetic, blood-brain barrier penetration and ex vivo receptor occupancy studies were performed as described in Bonaventure, P., D. Nepomuceno, C. Mazur, B. Lord, D. A. Rudolph, J. A. Jablonowski, N. I. Carruthers and T. W. Lovenberg, J Pharmacol Exp Ther. 2004, 308, 1130.
The compound of formula (A) was formulated in 20% hydroxypropylbetacyclodextrine. Subcutaneous (SC), oral (PO) or intravenous (IV) dosing was followed by blood sampling via cardiac puncture over a time course. Blood samples consisted of 250 μl samples taken from the heart using a 23-gauge needle into 1.5 ml micro-centrifuge tubes. Brains were removed from the animals and bisected down the midsagittal plane. One hemisphere was frozen on dry ice for ex vivo receptor binding autoradiography and the other was homogenized for LC/MS-MS analysis.
Ex vivo receptor binding autoradiography was performed on brain sections. Twenty-micron-thick coronal sections at the level of the […] regions were collected and incubated for 10 min with 100 pM [^125I]PYY in Krebs-Ringer phosphate buffer (KRP) at pH 7.4 supplemented with 0.1% BSA, 0.05% bacitracin, and 1 μM BIBP-3226 for Y1 receptor occlusion. The sections were not washed prior to incubation and were incubated 10 minutes to avoid dissociation. Nonspecific binding was determined using adjacent sections incubated in the presence of 1 μM unlabelled hNPY. At the end of the incubation, sections were washed 4 times (4 minutes each) in ice cold buffer, dipped in deionized water and rapidly dried under a stream of cold air. Sections were exposed to a Fujifilm Imaging Plate (BAS-MS2025) for 12 hours. The Phosphor Imaging Plate was scanned using a Fuji Bio-Imaging Analyzer System (BAS-5000). The digitized computer images generated by the scanner were visualized and quantified using ImageGauge V3.12 software (Fujifilm).

The target of the next test is T4, rat Y2 receptor (Rattus norvegicus, UniProt Q9ERC0).
T4 construct: membranes from rat or mouse hippocampus were prepared; from tissue; host or cells: rat hippocampus membranes
T4 sequence (Q9ERC0 1-381): T3 sequence (Q9ERC0 1-381)
Put plainly: Neuropeptide Y2 radioligand binding assay, [125I]PYY, rat hippocampus membranes. The note with it: read-out: rY2 pKi (converted). On the procedure: as §1, §2, §3

The target in a further test is T5, mouse Y2 receptor (Mus musculus, UniProt P97295).
T5 construct: membranes from rat or mouse hippocampus were prepared; from tissue; host or cells: mouse hippocampus membranes
T5 sequence (P97295 1-381): T3 sequence (Q9ERC0 1-381) with L4V, L20P, S23P, P25H, V52I, Q163R, V175I, K247R, T266M, L371P
Put plainly: Neuropeptide Y2 radioligand binding assay, [125I]PYY, mouse hippocampus membranes. The note with it: read-out: mY2 pKi (converted). On the procedure: as §1, §2, §3

Substitutions are numbered along the chain they refer to.

Chain of MTP (P55157 19-894, species assumed): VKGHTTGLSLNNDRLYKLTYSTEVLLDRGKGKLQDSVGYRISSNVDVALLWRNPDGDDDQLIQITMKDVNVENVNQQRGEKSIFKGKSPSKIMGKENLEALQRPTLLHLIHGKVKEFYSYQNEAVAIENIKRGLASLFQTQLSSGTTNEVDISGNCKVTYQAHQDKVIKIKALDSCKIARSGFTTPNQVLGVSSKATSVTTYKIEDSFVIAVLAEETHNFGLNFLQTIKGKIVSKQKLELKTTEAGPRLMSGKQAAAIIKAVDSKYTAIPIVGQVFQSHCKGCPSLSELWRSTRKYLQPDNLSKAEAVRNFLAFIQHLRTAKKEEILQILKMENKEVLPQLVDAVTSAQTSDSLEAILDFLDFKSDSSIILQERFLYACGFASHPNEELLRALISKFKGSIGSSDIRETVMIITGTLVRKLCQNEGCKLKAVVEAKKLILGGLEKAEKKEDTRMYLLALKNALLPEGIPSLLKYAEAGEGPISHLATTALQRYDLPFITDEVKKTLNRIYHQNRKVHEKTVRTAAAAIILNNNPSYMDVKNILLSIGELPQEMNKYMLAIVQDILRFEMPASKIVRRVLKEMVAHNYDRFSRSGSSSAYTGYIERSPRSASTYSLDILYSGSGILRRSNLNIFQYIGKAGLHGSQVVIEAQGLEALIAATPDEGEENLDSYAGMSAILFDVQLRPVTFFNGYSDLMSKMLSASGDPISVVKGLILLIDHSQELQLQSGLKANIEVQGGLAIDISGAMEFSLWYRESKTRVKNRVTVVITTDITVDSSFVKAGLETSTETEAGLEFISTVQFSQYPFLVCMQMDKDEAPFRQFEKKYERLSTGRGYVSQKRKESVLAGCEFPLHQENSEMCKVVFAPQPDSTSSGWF
Chain of MTP (P07237 18-508 partner, species assumed): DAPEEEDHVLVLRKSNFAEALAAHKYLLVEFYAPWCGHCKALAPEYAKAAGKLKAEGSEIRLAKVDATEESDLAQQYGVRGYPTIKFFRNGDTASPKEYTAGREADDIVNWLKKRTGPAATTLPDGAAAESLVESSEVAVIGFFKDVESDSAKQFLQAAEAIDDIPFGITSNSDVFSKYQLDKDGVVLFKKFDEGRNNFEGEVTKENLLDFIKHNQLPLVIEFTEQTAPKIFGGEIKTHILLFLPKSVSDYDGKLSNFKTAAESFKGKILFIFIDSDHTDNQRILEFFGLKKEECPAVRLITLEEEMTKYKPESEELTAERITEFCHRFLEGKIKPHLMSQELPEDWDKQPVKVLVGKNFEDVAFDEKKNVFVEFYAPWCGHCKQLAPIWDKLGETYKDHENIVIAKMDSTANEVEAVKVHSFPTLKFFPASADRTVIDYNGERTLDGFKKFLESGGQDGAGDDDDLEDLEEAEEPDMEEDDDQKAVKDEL

As to `CCNC(=O)C(c1ccccc1)N1CCN(c2ccc(NC(=O)c3ccccc3-c3cccnc3)cc2F)CC1` (racemic) [Cmpd (B), N-{4-[4-(ethylcarbamoyl-phenyl-methyl)-piperazin-1-yl]-3-fluorophenyl}-2-pyridin-3-yl-benzamide], the IC50 on MTP is 251 nM. In addition, the Ki on human Y2 receptor is 32.4 nM. Further, on hY2, the Kb was 50.1 nM. The receptor occupancy at 10 mg/kg in test [1] (rat, read-out: Y2 receptor occupancy in rat brain) was ~40%.

Take `CCN(CC)C(=O)C(c1ccccc1)N1CCN(c2ccc(NC(=O)c3ccccc3-c3cccnc3)cc2F)CC1` (single isomer, unassigned; (+)) [(+)-Cmpd (A), N-{4-[4-(Diethylcarbamoyl-phenyl-methyl)-piperazin-1-yl]-3-fluoro-phenyl}-2-pyridin-3-yl-benzamide]: the IC50 at MTP was 316 nM. Moreover, the Ki was 7.94 nM at human Y2 receptor and 10 nM at rat Y2 receptor. For the same molecule, on hY2, the Kb was 0.398 nM.

Take `CCNC(=O)C(c1ccccc1)N1CCN(c2ccc(NC(=O)c3ccccc3-c3cccnc3)cc2F)CC1` (single isomer, unassigned; (+)) [(+)-Cmpd (B), N-{4-[4-(ethylcarbamoyl-phenyl-methyl)-piperazin-1-yl]-3-fluoro-phenyl}-2-pyridin-3-yl-benzamide]: the IC50 at MTP is 3980 nM. Besides, the Ki on human Y2 receptor was 229 nM.

For the molecule `CCN(CC)C(=O)C(c1ccccc1)N1CCN(c2ccc(NC(=O)c3ccccc3-c3cccnc3)cc2F)CC1` (single isomer, unassigned; (-)) [(−)-Cmpd (A), (−)-N-{4-[4-(Diethylcarbamoyl-phenyl-methyl)-piperazin-1-yl]-3-fluoro-phenyl}-2-pyridin-3-yl-benzamide], at MTP, the IC50 is 6310 nM. Moreover, the Ki at human Y2 receptor was 3.16 nM; on rat Y2 receptor it was 12 nM; at mouse Y2 receptor, 7.94 nM. In addition, the Kb on hY2 is 0.794 nM.

As to `CCNC(=O)C(c1ccccc1)N1CCN(c2ccc(NC(=O)c3ccccc3-c3cccnc3)cc2F)CC1` (single isomer, unassigned; (-)) [(−)-Cmpd (B), N-{4-[4-(ethylcarbamoyl-phenyl-methyl)-piperazin-1-yl]-3-fluoro-phenyl}-2-pyridin-3-yl-benzamide], the IC50 at MTP is 398 nM. In addition, the Ki on human Y2 receptor was 39.8 nM.

As for `CCN(CC)C(=O)C(c1ccccc1)N1CCN(c2ccc(NC(=O)c3ccccc3-c3ccccc3)cc2F)CC1` (stereo not shown) [Cmpd (C), Biphenyl-2-carboxylic acid {4-[4-(diethylcarbamoyl-phenyl-methyl)-piperazin-1-yl]-3-fluoro-phenyl}-amide], the IC50 on MTP is 50.1 nM. Further, the Ki on human Y2 receptor is 7.59 nM; at rat Y2 receptor, 25.1 nM. Further, the Kb on hY2 was 6.31 nM. In addition, in test [1], the “Y2 receptor occupancy in rat brain” value is reported as “did not show any significant level of Y2 receptor occupancy”.
